The data set concerns rat liver. Kind of data set: Safety animal testing: 3-month repeated oral administration, liver lesions. Type of data set: in vivo. The conditions noted are these: male rats, repeated oral administration for 3 months; dose equivalent to 96 μgSe/kg BW for the human body.

This passage reports liver lesions results from US12385076B2, “Preparation and application of high-activity and high-safety cardamine violifolia selenoprotein standard sample” (priority 2022, dated 2025).

As to `O=[Se](O)O` [sodium selenite], the liver lesions result is on record as “caused liver lesions”.
